Entries after “also recorded” stand apart in the source; their conditions may differ. Square brackets hold non-standard residues; d marks the D form. Ends that are not written are not given here. Nle = CCCC[C@H](N)C(=O)O
How the values were obtained:
AT2 receptor = target: T1, AT2 receptor (Homo sapiens, UniProt P50052); conditions: cited from earlier work
T1 sequence (P50052 1-363): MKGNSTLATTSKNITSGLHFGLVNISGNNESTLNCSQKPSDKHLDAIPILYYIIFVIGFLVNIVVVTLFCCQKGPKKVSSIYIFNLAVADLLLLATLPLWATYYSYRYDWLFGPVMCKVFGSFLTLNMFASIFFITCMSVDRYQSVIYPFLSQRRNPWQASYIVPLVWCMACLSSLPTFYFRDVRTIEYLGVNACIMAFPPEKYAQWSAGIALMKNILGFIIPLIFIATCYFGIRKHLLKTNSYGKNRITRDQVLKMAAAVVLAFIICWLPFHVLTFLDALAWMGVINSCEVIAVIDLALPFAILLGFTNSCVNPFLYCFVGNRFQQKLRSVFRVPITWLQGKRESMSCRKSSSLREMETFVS

[1] = test system: Ischemic Myocardial Tissue; experiment: Formation of collateral circulation in ischemic myocardial tissue after coronary artery ligation; assay type: in vivo, Rabbits; conditions: rabbit, peptide 1 mg/ml; for Number of blood vessels present in the infarct site, Mean ± SEM: left circumflex and left anterior descending arteries ligated, 0.05 ml in Hydron vehicle injected in cardiac muscle, necropsy from day 7, microscopic examination; for Vascularization of the infarct site: 0.05 ml injected distal to coronary occlusion, versus vehicle
Protocol: Rabbits underwent a surgical procedure under intramuscular anesthesia (Ketamine and Rompum) after shaving with animal clippers and preparation with betadine and isopropyl alcohol. A midline sternotomy was performed. After exposure of the pericardial sac, a three centimeter incision was made into the pericardium. After visualization of the epicardial surface, two coronary arteries, the left circumflex and the left anterior descending arteries, were exposed and ligated by 4-0 Vicryl suture. Vehicle (10% Hydron, 60% ethanol and 1% polyethylene glycol), with or without peptide (1 mg/ml, 0.05 ml) was injected in the cardiac muscle distal to the site of coronary occlusion. The sternum was then closed with 2-0 Silk. The muscle and skin were then closed with 3-0 Dexon II suture. Starting at 7 days after surgery, the animals were euthanized and necropsies performed. The number of blood vessels present in the infarct site was assessed grossly and by microscopic evaluation.

[2] = Unspecified test of effectiveness of AII fragments
[3] = test system: chick chorioallantoic membrane; conditions: chick chorioallantoic membrane model; cited from earlier work
rabbit corneal eye = rabbit corneal eye model; cited from earlier work
rat kidneys = conditions: cited from earlier work
[4] = test system: Living skin equivalent (LSE) graft tissue; experiment: Engraftment of living skin equivalent (LSE) on full thickness skin excision; assay type: in vivo, Swiss nude mice; conditions: LSE soaked 15 minutes in 1.0 mg/ml peptide; day 7; compared to untreated LSE
Protocol: Male Swiss nude mice (22-24 g) were anesthetized with an intramuscular injection of Ketaset/Rompun and a 1 cm×1 cm full thickness skin excision was made on their dorsal surface. Living skin equivalent (LSE) was placed in the defect and trimmed with microscissors so that no gap was observed between the edges of the mouse skin and the LSE. The mice were divided into 6 groups based upon the peptide tested: (0 [LRS-Dextrose], or 1.0 mg/ml AII or AII analogues, AII (1-7) [SEQ ID NO:4]; Ala4AIII [SEQ ID NO:18]; Pro3AII [SEQ ID NO:31]; and Ile8AII [SEQ ID NO: 42]; see Table 3) and the LSE was soaked for 15 minutes in lactated Ringers solution with 5% dextrose with or without peptides prior to placement. After the graft was placed, the dorsal surface of the mouse was covered by petrolatum-embedded gauze followed by two adhesive bandages. After recovery from anesthesia, the mice were returned to their individual cages and observed daily until euthanasia. The mice received intramuscular analgesia for the first three days after surgery. No mouse lost its bandages prior to necropsy or bandage removal on day 7. The mice were necropsied on day 7. At necropsy, the degree of graft take and the appearance of the grafted tissue was noted prior to placement of the biopsy in 10% buffered formalin in preparation for paraffin embedding and section for hematoxylin and eosin staining.

burn areas = experiment: Partial thickness thermal injury model; assay type: in vivo, Hartley guinea pigs; conditions: 1 mg/ml peptide in 10% low-viscosity CMC, topical on burn; day 7

## Asp-Arg-Val-Tyr-Ile-His-Pro-Phe (DRVYIHPF) [AII]
AT2 receptor
  Affinity for AT2 relative to AT1: 100 times

## DRPYIHP [Analogue 2GD]
[1]
  Number of blood vessels present in the infarct site, Mean ± SEM: 31.2 ± 5.62
  Vascularization of the infarct site: increase vascularization

## DRKYIHP [Analogue 5GD]
[1]
  Number of blood vessels present in the infarct site, Mean ± SEM: 24.55 ± 2.34
  Vascularization of the infarct site: increase vascularization

## Tyr-Ile-His-Pro-Phe (YIHPF) [AII(4-8)]
[2]
  Effectiveness (test not specified): not to be effective; also recorded: ineffective

## DR(nor)YIHP (DR[Nle]YIHP) [Analogue 9GD]
[1]
  Number of blood vessels present in the infarct site, Mean ± SEM: 21.2 ± 2.8
  Vascularization of the infarct site: increase vascularization

## DRVAIHP [Analogue 1GD]
[1]
  Number of blood vessels present in the infarct site, Mean ± SEM: 23.4 ± 8.6
  Vascularization of the infarct site: increase vascularization

## His-Pro-Phe (HPF) [AII(6-8)]
[2]
  Effectiveness (test not specified): not to be effective

## Asp-Arg-Val-Tyr-Ile-His-Pro-Phe [AII]
[3]
  Angiogenic activity: angiogenic
[1]
  Number of blood vessels present in the infarct site, Mean ± SEM: 29.8 ± 12.3
  Vascularization of the infarct site: increase vascularization
Rabbit corneal eye
  Angiogenic activity: angiogenic
Rat kidneys
  Activation of collateral circulation via preformed blood vessels: activate collateral circulation
[4]
  Angiogenesis (vascular channel formation) in graft tissue: increased
  Endothelial cell production in graft tissue: increased
Burn areas
  Blood flow response (angiogenesis) after thermal injury, compared to control: increased blood flow response compared to control

## Asp-Arg-Val-Tyr-Ile-His-Pro (DRVYIHP) [AII(1-7)]
[1]
  Number of blood vessels present in the infarct site, Mean ± SEM: 80.6 ± 4.5
  Vascularization of the infarct site: increase vascularization

Source: patent US6482800B1, “Methods to stimulate angiogenesis” (The University of Southern California, priority 1998, dated 2002)
